# Experimental data published in US5053070A, “Pyrimidine derivatives, preparation processes thereof, herbicide containing the same, and herbicidal compositions containing the same along with other active ingredient” (Mitsui Toatsu Chemicals, Incorporated, priority 1988, dated 1991).
# Assays:
# foxtail meadow = assay: Upland foliar application test (Test 3); type: in vivo; details: 30 g ai/a, foliar spray at 2-3 leaves, 30th day
# Description: (§1) Resin-made 1/10000-are pots were filled with the soil of an upland field. Redroot pigweed, common lambsquarters, foxtail meadow, johnsongrass, barnyardgrass, green foxtail, large crabgrass, soybean, peanut and cotton were separately seeded and were allowed to germinate in a green house. When each plant grew to the stage of 2-3 leaves, an emulsion formulated from a predetermined amount of each test compound in a similar manner to the method described in Formulation Example 11 was diluted with water to a predetermined dilution rate and then sprayed at an application rate equal to 5 l per are onto the foliage of each plant by means of a pressure-operated ULV (ultra low volume) sprayer. Influence to the crops and weeds were observed on the 30th day after the spray of the herbicides. The results are shown in Table 4 in which the degree of damages of each test plant and the degree of injury to each crop are shown in a similar manner to Test 2.
# barnyardgrass = assay: Upland foliar application test (Test 3); type: in vivo; details: 30 g ai/a, foliar spray at 2-3 leaves, 30th day
# Description: as §1
# green foxtail = assay: Upland foliar application test (Test 3); type: in vivo; details: 30 g ai/a, foliar spray at 2-3 leaves, 30th day
# Description: as §1
# common lambsquarters = assay: Upland foliar application test (Test 3); type: in vivo; details: 30 g ai/a, foliar spray at 2-3 leaves, 30th day
# Description: as §1
# large crabgrass = assay: Upland foliar application test (Test 3); type: in vivo; details: 30 g ai/a, foliar spray at 2-3 leaves, 30th day
# Description: as §1
# redroot pigweed = assay: Upland foliar application test (Test 3); type: in vivo; details: 30 g ai/a, foliar spray at 2-3 leaves, 30th day
# Description: as §1
# johnsongrass = assay: Upland foliar application test (Test 3); type: in vivo; details: 30 g ai/a, foliar spray at 2-3 leaves, 30th day
# Description: as §1
# rice [1] = assay: Treatment of soil under submerged condition, pre-emergence (Test 4), injury; type: in vivo; details: 30 g ai/a granule, 30 days later
# Description: (§2) 1/5000-are Wagner pots were filled with soil. Seeds or tubers of barnyardgrass, Monochoria vaginalis, bulrush, Sagittaria pygmaea, Cyperus seroylnus and Eleocharis kuroguwai were seeded or planted under submerged condition. Two pairs of rice seedlings (2-3 leaf stage), which had been reared in advance, were transplanted to each pot and were allowed to germinate in a green house. Each pair consisted of two rice seedlings. One day later (before emergence of weeds), each pot was treated with a granule which had been prepared by processing a predetermined amount of the test composition in accordance with a similar method to the method described in Formulation Example 9. The state of emergence of weeds and the state of injury of rice were observed 30 days later.
# In the table, the degrees of damages of the test plants and the degrees of injury of rice are shown in a similar manner to Example 2.
# cotton = assay: Upland foliar application test (Test 3), crop injury; type: in vivo; details: 30 g ai/a, foliar spray at 2-3 leaves, 30th day
# Description: as §1
# peanut = assay: as above; type: in vivo; details: 30 g ai/a, foliar spray at 2-3 leaves, 30th day
# Description: as §1
# soybean = assay: as above; type: in vivo; details: 30 g ai/a, foliar spray at 2-3 leaves, 30th day
# Description: as §1
# [2] = system: ALS (acetolactate syntase); assay: ALS enzyme assay (Test 1); type: biochemical, pea; details: 1,000 ppm (0.5 mg/0.5 ml)
# Description: To determine the selectivity in enzyme level between crops and weeds, and ALS enzyme assay was conducted using pea as a representative of broadleaf crops and barnyardgrass as a representative of narrowleaf weeds.
# After seeds of pea and barnyardgrass were allowed to germinate at 25° C. for 8-14 days in a dark place, partially-purified suspensions (Suspensions A) of acetolactate syntase were separately obtained from seedlings in accordance with the method described in the literature, Plant Physiology, 75, 827-831.
# In a test tube, 0.5 mg of one of test compounds was weighed, followed by the addition of 0.15 ml of a 20 mM K2 HPO4 solution and 0.25 ml of a reaction substrate medium which consisted of 40 mM of K2 HPO4, 40 mM of sodium pyruvate, 1 mM of TPP, 1 mM of MgCl2 and 20 μM of FAD so that 0.4 ml of a reaction solution (Solution B) was prepared. Added to 0.4 ml of Solution B was 0.1 ml of suspension A. After the resultant mixture was shaken for 1 hour in a thermostat water bath controlled at 30° C., 50 μl of 6N sulfuric acid were added to terminate the reaction.
# Next, the reaction-terminated liquid mixture was transferred into a thermostat water bath controlled at 60° C. and was heated for 15 minutes. Thereafter, 0.5 ml of a 0.5% creatine solution and 0.5 ml of a 5% alkaline α-naphthol solution were added, and the resultant mixture was maintained at 60° C. for 15 minutes. As a result, the test solution developed a pink-red color. After the above operation, the absorbance of the test solution at 525 nm was measured by a spectrophotometer (Absorbance 1 of Test Compound).
# On the other hand, the absorbance (Absorbance 2 of Blank) of a solution obtained by subjecting a portion of Solution B, said portion being free of the test compound, to the above operation and the absorbance (Absorbance 3 of sulfuric acid terminated) of another solution obtained by subjecting another portion of Solution B, said portion containing 50 μl of 6N sulfuric acid as a test compound, were measured at the same time. Based on the values of the respective measurements, the enzyme assay at 1,000 ppm (0.5 mg/0.5 ml) of each compound was determined. [formula]
# narrowleaf waterplantain = assay: Petri dish test (Test 6); type: in vivo; details: 336 h; seeds on filter paper, 25° C., 14 days; read-out: I80 (ppm)
# Description: A filter paper was placed in each glass-made Petri dish having a diameter of 9 cm. A compound dissolved in acetone was added in a predetermined amount. The filter paper was then dried in air to remove acetone. Seeds of narrowleaf waterplantain were placed on the filter paper and 10 ml of water were poured into the Petri dish. The seeds were allowed to grow at 25° C. in a bright room. Fourteen days later, the state of growth of narrowleaf water-plantain was observed.
# In the table, the degree of damages of the test plant was determined by comparing the state of growth of the plant with that of the plant in an untreated group and is shown in accordance with the following standard: […]
# rice [3] = assay: Treatment of soil under submerged condition, post-emergence (Test 5), injury; type: in vivo; details: 30 g ai/a granule, 30 days later
# Description: as §2, with “serroylnus” for “seroylnus”, “grow” for “germinate”, “When the barnyardgrass grew to two-leaf stage,” for “One day later (before emergence of weeds),”
# In the table, the degrees of damages of the test plants and the degrees of injury of the rice are shown in a similar manner to Example 2.
Inhibitory activity (%) Pea [2] [%],Structure (SMILES),Herbicidal effects Foxtail meadow (foxtail meadow),Herbicidal effects Barnyardgrass (barnyardgrass),Herbicidal effects Green foxtail (green foxtail),Herbicidal effects Common lambsquarters (common lambsquarters),Herbicidal effects Large crabgrass (large crabgrass),Herbicidal effects Redroot pigweed (redroot pigweed),Herbicidal effects Johnsongrass (johnsongrass),Injury Rice (rice [1]),Injury Cotton (cotton),Injury Peanut (peanut),Injury Soybean (soybean),IC80 (narrowleaf waterplantain) [µg/mL],Injury Rice (rice [3])
0,COc1cccc(C=CCON=Cc2ccccc2Oc2nc(OC)cc(OC)n2)c1 [compound 38],4 (6-10 (Severe damages)),5 (0-5 (Death)),5 (0-5 (Death)),4 (6-10 (Severe damages)),5 (0-5 (Death)),4 (6-10 (Severe damages)),5 (0-5 (Death)),0 (91-100 (No damages)),0 (91-100 (No damages)),0 (91-100 (No damages)),0 (91-100 (No damages)),2,1 (71-90 (Slight damages))
0,CCc1ccc(C=CCON=Cc2ccccc2Oc2nc(OC)cc(OC)n2)cc1 [compound 37],5 (0-5 (Death)),4 (6-10 (Severe damages)),5 (0-5 (Death)),4 (6-10 (Severe damages)),5 (0-5 (Death)),4 (6-10 (Severe damages)),5 (0-5 (Death)),0 (91-100 (No damages)),0 (91-100 (No damages)),0 (91-100 (No damages)),0 (91-100 (No damages)),2,1 (71-90 (Slight damages))

# Second part, the compound before the results:
Structure (SMILES),Inhibitory activity (%) Pea [2] [%],Herbicidal effects Foxtail meadow (foxtail meadow),Herbicidal effects Barnyardgrass (barnyardgrass),Herbicidal effects Green foxtail (green foxtail),Herbicidal effects Common lambsquarters (common lambsquarters),Herbicidal effects Large crabgrass (large crabgrass),Herbicidal effects Redroot pigweed (redroot pigweed),Herbicidal effects Johnsongrass (johnsongrass),Injury Rice (rice [1]),Injury Cotton (cotton),Injury Peanut (peanut),Injury Soybean (soybean),IC80 (narrowleaf waterplantain) [µg/mL],Injury Rice (rice [3])
COc1cc(OC)nc(Oc2ccccc2C=NOCC=Cc2c(F)cccc2F)n1 [compound 33],0,5 (0-5 (Death)),5 (0-5 (Death)),5 (0-5 (Death)),4 (6-10 (Severe damages)),5 (0-5 (Death)),4 (6-10 (Severe damages)),5 (0-5 (Death)),0 (91-100 (No damages)),0 (91-100 (No damages)),0 (91-100 (No damages)),0 (91-100 (No damages)),8,1 (71-90 (Slight damages))
COc1cc(OC)nc(Oc2ccccc2C=NOCc2ccccc2)n1 [Compound No. 15],0,4 (6-10 (Severe damages)),5 (0-5 (Death)),5 (0-5 (Death)),5 (0-5 (Death)),4 (6-10 (Severe damages)),5 (0-5 (Death)),5 (0-5 (Death)),1 (71-90 (Slight damages)),0 (91-100 (No damages)),0 (91-100 (No damages)),0 (91-100 (No damages)),100,1 (71-90 (Slight damages))
"CON=Cc1ccccc1Oc1nc(OC)cc(OC)n1 [Compound No. 1, O-methyl--2-(4,6-dimethoxy-2-pyrimidinyloxy)benzaldoxime]",3,5 (0-5 (Death)),5 (0-5 (Death)),5 (0-5 (Death)),4 (6-10 (Severe damages)),3 (11-40 (Medium damages)),5 (0-5 (Death)),5 (0-5 (Death)),0 (91-100 (No damages)),0 (91-100 (No damages)),0 (91-100 (No damages)),0 (91-100 (No damages)),25,0 (91-100 (No damages))
COc1cc(OC)nc(Oc2ccccc2C=NOC(C)c2ccccc2)n1 (centres unmarked) [compound 21],0,3 (11-40 (Medium damages)),3 (11-40 (Medium damages)),4 (6-10 (Severe damages)),3 (11-40 (Medium damages)),4 (6-10 (Severe damages)),3 (11-40 (Medium damages)),5 (0-5 (Death)),0 (91-100 (No damages)),0 (91-100 (No damages)),0 (91-100 (No damages)),0 (91-100 (No damages)),100,0 (91-100 (No damages))
"COc1cc(OC)nc(Oc2ccccc2C=NOCC=Cc2cccc(C)c2)n1 [Compound No. 34, 0-(3-methylcinnamyl)-2-(4,6-dimethoxy-2-pyrimidinyloxy)benzaldoxime]",0,5 (0-5 (Death)),5 (0-5 (Death)),5 (0-5 (Death)),4 (6-10 (Severe damages)),4 (6-10 (Severe damages)),4 (6-10 (Severe damages)),5 (0-5 (Death)),0 (91-100 (No damages)),0 (91-100 (No damages)),0 (91-100 (No damages)),0 (91-100 (No damages)),2,1 (71-90 (Slight damages))
